PubChem BioAssay (NCI)
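Five compound concentrations were applied to cells in 96-well plates for 48 hours; endpoints were derived by simple linear interpolation of the resulting dose-response curve. Definition used: TGI = concentration required for complete inhibition of growth.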

Columns and labels:
Assay in all cases: DTP human tumour cell line panel, 48 h
HOP-18 NSCLC = system: HOP-18 NSCLC
DLD-1 colon = system: DLD-1 colon
KM20L2 colon = system: KM20L2 colon
LXFL 529 NSCLC = system: LXFL 529 NSCLC
XF 498 CNS = system: XF 498 CNS
SNB-78 CNS = system: SNB-78 CNS
RXF-631 renal = system: RXF-631 renal

| SMILES | TGI (HOP-18 NSCLC) | TGI (DLD-1 colon) | TGI (KM20L2 colon) | TGI (LXFL 529 NSCLC) | TGI (XF 498 CNS) | TGI (SNB-78 CNS) | TGI (RXF-631 renal) |
| --- | --- | --- | --- | --- | --- | --- | --- |
| Cc1nc2c(n1C)C(=O)c1nc(CBr)[nH]c(=O)c1C2=O | > 100 µM | > 100 µM | > 100 µM | > 100 µM |  |  |  |
| CN(C)c1nc(N(C)C)nc(N(C)CN(C)c2ccc(Cl)cc2)n1 |  | > 100 µM |  | > 100 µM | > 100 µM | > 100 µM |  |
| CCCCCCCCCCCCCCCc1ccc(OCC(O)CO)cc1 (stereo not given) | > 100 µM | > 100 µM | 94.4 µM | 68 µM | 39.3 µM | 99.3 µM | 71.6 µM |
